# Reference: patent US10865435B2, “Method of screening antibacterial compounds as inhibitor of Mfd” (INSTITUT NATIONAL DE LA RECHERCHE AGRONOMIQUE, priority 2016, dated 2020)
# Tested on: Bacillus cereus strain Bc 407
# Experiment: Molecule capacity to inhibit bacterial growth in the presence of artificially produced nitric oxide (cfu plating)
# Assay type: cell-based
# Method: Bacteria (Bacillus cereus strain Bc 407) were grown in LB medium until mid exponential growth phase at 37° C. with shaking. Cultures were then diluted to 10^4 cfu/ml in PBS (Phosphate Buffered Saline, Sigma). The molecules to be tested (potential Mfd inhibitors) are added at a concentration of 0 to 1 mM to the bacteria and the bacteria+inhibitors are incubated at room temperature for 1 h without agitation.
# Bacteria were then exposed directly to chemically generated NO+ in a cell-free system as described by Miyagi et al. (Miyagi et al., 1997) with modifications. Briefly, 10^4 bacterial cfu (+various concentrations of potential Mfd inhibitors) are incubated in RPMI-1640 medium (Invitrogen) at acidic pH (pH 5.4) either in the absence or in the presence of 1.5 mM sodium nitrite (Walco Pure Chemical Industries Ltd) at 37° C. for 1 h under shaking; under these acidic conditions, NO+ is generated from the sodium nitrite by a chemical reaction (Miyagi et al., 1997).
# The bacteria are harvested and plated on agar plates to evaluate bacterial survival. The cfu obtained without nitric oxide stress gives the toxicity value whereas the cfu obtained following nitric oxide stress gives the inhibitor efficacy value. Using this cell free assay, the inhibitor concentration required to decrease by 50% the survival rate of the bacteria (IC50) in the presence of nitric oxide stress compared to untreated bacteria is calculated using the GraphPad PRISM software (version 6.0, GraphPad Software, San Diego, Calif.) with non-linear regression.
structure (smiles),measurement,setting,value
"CN1CC(=O)N2[C@H](c3ccc4c(c3)OCO4)c3[nH]c4ccccc4c3C[C@@H]2C1=O [tadalafil, (6R-trans)-6-(1,3-benzodioxol-5-yl)-2,3,6,7,12,12a-hexahydro-2-methyl-pyrazino[1′,2′:1,6]pyrido[3,4-b]indole-1,4-dione]",IC50,"1.5 mM sodium nitrite, pH 5.4, 37° C., 1 h, mean of two experiments, read-out: IC50 (concentration required to decrease by 50% the survival rate of the bacteria in the presence of nitric oxide stress compared to untreated bacteria)",98.7 µM
same,activity on B. cereus survival with nitric oxide (NO) stress,"with NO stress, at 100 μM",activity
same,activity on B. cereus survival without stress (toxicity),"without nitric oxide stress, until 100 μM",weak activity
